{"source": "the SangsterLogP compilation"}
{"compound": "C[C@]12C[C@H](O)[C@H]3[C@@H](CCC4=CC(=O)CC[C@@]43C)[C@@H]1CC[C@@H]2C(=O)CO", "values": [{"measurement": "logP", "value": 2.06}]}
{"compound": "CCC(=O)O[C@]1(C(=O)CO)CC[C@H]2[C@@H]3CCC4=CC(=O)CC[C@]4(C)[C@H]3[C@@H](O)C[C@@]21C", "values": [{"measurement": "logP", "value": 2.7}]}
{"compound": "CCC(=O)O[C@]1(C(=O)CCl)[C@@H](C)C[C@H]2[C@@H]3CCC4=CC(=O)C=C[C@]4(C)[C@@]3(Cl)[C@@H](O)C[C@@]21C", "values": [{"measurement": "logP", "value": 3.28}]}
{"compound": "C[C@H]1C[C@H]2[C@@H]3CCC4=CC(=O)C=C[C@]4(C)[C@@]3(F)[C@@H](O)C[C@]2(C)[C@@]1(O)C(=O)CCl", "values": [{"measurement": "logP", "value": 2.48}]}
{"compound": "CCCCC(=O)OCC(=O)[C@@]1(O)CC[C@H]2[C@@H]3CCC4=CC(=O)CC[C@]4(C)[C@H]3[C@@H](O)C[C@@]21C", "values": [{"measurement": "logP", "value": 3.62}]}
{"compound": "CCC(=O)OCC(=O)[C@@]1(O)CC[C@H]2[C@@H]3CCC4=CC(=O)CC[C@]4(C)[C@H]3[C@@H](O)C[C@@]21C", "values": [{"measurement": "logP", "value": 2.8}]}
{"compound": "CCC(=O)O[C@]1(C(=O)CCl)[C@@H](C)C[C@H]2[C@@H]3CCC4=CC(=O)C=C[C@]4(C)[C@H]3[C@@H](O)C[C@@]21C", "values": [{"measurement": "logP", "value": 3.34}]}
{"compound": "C[C@H]1C[C@H]2[C@@H]3CCC4=CC(=O)C=C[C@]4(C)[C@@]3(F)C(=O)C[C@]2(C)[C@@]1(O)C(=O)CCl", "values": [{"measurement": "logP", "value": 2.61}]}
{"compound": "CCCCC(=O)OCC(=O)[C@@]1(O)[C@@H](C)C[C@H]2[C@@H]3CCC4=CC(=O)C=C[C@]4(C)[C@@]3(F)[C@@H](O)C[C@@]21C", "values": [{"measurement": "logP", "value": 3.87}]}
{"compound": "CCC(=O)O[C@]1(C(=O)CCl)[C@@H](C)C[C@H]2[C@@H]3CCC4=CC(=O)C=C[C@]4(C)[C@@]3(F)[C@@H](O)C[C@@]21C", "values": [{"measurement": "logP", "value": 3.18}]}
{"compound": "CCCC(=O)O[C@]1(C(=O)CCl)[C@@H](C)C[C@H]2[C@@H]3CCC4=CC(=O)C=C[C@]4(C)[C@@]3(F)[C@@H](O)C[C@@]21C", "values": [{"measurement": "logP", "value": 3.63}]}
{"compound": "CCCCC(=O)O[C@]1(C(=O)CO)CC[C@H]2[C@@H]3CCC4=CC(=O)CC[C@]4(C)[C@H]3[C@@H](O)C[C@@]21C", "values": [{"measurement": "logP", "value": 3.79}]}
{"compound": "CCC(=O)OCC(=O)[C@@]1(O)[C@@H](C)C[C@H]2[C@@H]3CCC4=CC(=O)C=C[C@]4(C)[C@@]3(F)[C@@H](O)C[C@@]21C", "values": [{"measurement": "logP", "value": 3.06}]}
{"compound": "CCC(=O)O[C@]1(C(=O)CCl)[C@@H](C)C[C@H]2[C@@H]3CCC4=CC(=O)C=C[C@]4(C)[C@H]3C(=O)C[C@@]21C", "values": [{"measurement": "logP", "value": 3.3}]}
{"compound": "CCC(=O)O[C@]1(C(=O)CCl)[C@@H](C)C[C@H]2[C@@H]3CCC4=CC(=O)C=C[C@]4(C)[C@@]3(F)C(=O)C[C@@]21C", "values": [{"measurement": "logP", "value": 3.46}]}
{"compound": "CCC(=O)O[C@]1(C(=O)CBr)[C@@H](C)C[C@H]2[C@@H]3CCC4=CC(=O)C=C[C@]4(C)[C@@]3(F)C(=O)C[C@@]21C", "values": [{"measurement": "logP", "value": 3.55}]}
{"compound": "CCCC(=O)O[C@]1(C(=O)CO)CC[C@H]2[C@@H]3CCC4=CC(=O)CC[C@]4(C)[C@H]3[C@@H](O)C[C@@]21C", "values": [{"measurement": "logP", "value": 3.18}]}
{"compound": "C[C@]12C=CC(=O)C=C1CC[C@@H]1[C@@H]2[C@@H](O)C[C@@]2(C)[C@H]1CC[C@]2(O)C(=O)CO", "values": [{"measurement": "logP", "value": 1.58}]}
{"compound": "C[C@]12C=CC(=O)C=C1CC[C@H]1[C@@H]3CC[C@](O)(C(=O)CO)[C@@]3(C)C[C@H](O)[C@@]12F", "values": [{"measurement": "logP", "value": 1.51}]}
{"compound": "CCC(=O)O[C@]1(C(C)=O)[C@@H](C)C[C@H]2[C@@H]3CCC4=CC(=O)C=C[C@]4(C)[C@@]3(F)C(=O)C[C@@]21C", "values": [{"measurement": "logP", "value": 3.09}]}
{"compound": "CC(=O)OC1(C(=O)CO)CCC2C3CCC4=CC(=O)C=CC4(C)C3C(=O)CC21C", "note": "(centres undefined)", "values": [{"measurement": "logP", "value": 2.43}]}
{"compound": "CC12CCC(=O)C=C1CCC1C3CCC(O)(C(=O)CO)C3(C)CC(=O)C12F", "note": "(centres undefined)", "values": [{"measurement": "logP", "value": 1.37}]}
{"compound": "CCCC(=O)OCC(=O)C1(O)C(C)CC2C3CCC4=CC(=O)C=CC4(C)C3(F)C(O)CC21C", "note": "(centres undefined)", "values": [{"measurement": "logP", "value": 3.55}]}
{"compound": "CCCC(=O)O[C@]1(C(=O)CCl)[C@@H](C)C[C@H]2[C@@H]3CCC4=CC(=O)C=C[C@]4(C)[C@@]3(F)C(=O)C[C@@]21C", "values": [{"measurement": "logP", "value": 3.76}]}
{"compound": "CCCCC(=O)O[C@]1(C(=O)CO)CC[C@H]2[C@@H]3CCC4=CC(=O)C=C[C@]4(C)[C@H]3[C@@H](O)C[C@@]21C", "values": [{"measurement": "logP", "value": 3.82}]}
{"compound": "CC(=O)O[C@]1(C(=O)CO)CC[C@H]2[C@@H]3CCC4=CC(=O)CC[C@]4(C)[C@H]3C(=O)C[C@@]21C", "values": [{"measurement": "logP", "value": 2.45}]}
{"compound": "CCCC(=O)OCC(=O)[C@@]1(O)CCC2C3CCC4=CC(=O)CC[C@]4(C)C3C(O)C[C@@]21C", "note": "(some centres undefined)", "values": [{"measurement": "logP", "value": 2.91}]}
{"compound": "CC(=O)[C@@]1(O)[C@@H](C)C[C@H]2[C@@H]3CCC4=CC(=O)C=C[C@]4(C)[C@@]3(F)[C@@H](O)C[C@@]21C", "values": [{"measurement": "logP", "value": 2.35}]}
{"compound": "CCCCC(=O)OCC(=O)[C@@]1(OC(=O)CCCC)[C@@H](C)C[C@H]2[C@@H]3CCC4=CC(=O)C=C[C@]4(C)[C@@]3(F)[C@@H](O)C[C@@]21C", "values": [{"measurement": "logP", "value": 5.26}]}
